Source: PMC10923054, “Antiplasmodial peptaibols act through membrane directed mechanisms” (Cell Chemical Biology, 2024)
Square brackets hold non-standard residues; d marks the D form. Peptide text beside a SMILES is read from it. Phe(ol) = N[C@H](CO)Cc1ccccc1; Leu(ol) = CC(C)C[C@H](N)CO; dIva = CC[C@@](C)(N)C(=O)O; Aib = CC(C)(N)C(=O)O

Assays:
[1] = tested on: digestive vacuole of functionally isolated 3D7 trophozoites; assay: FITC-dextran measurements of DV pH and membrane integrity; on DV Alkylization: key: -: A '–' indicates a negative finding; a single '+' indicates a positive finding; a double '++' indicates a strong positive finding; format: cell-based, P. falciparum; settings: for DV Alkylization: Figure 7A summary; for localization of membrane impermeable dye FITC-dextran (DV membrane leakage): microscopic analysis after 2 h
Method: Preloading of 3D7 parasites with FITC-dextran was done as outlined in Saliba et al.[68] In summary, 2.25 mL of pre-warmed lysis buffer (5 mM HEPES, 11 mM glucose, 2 mM MgCl2, 2 mM ATP, and 110 μM FITC-dextran, pH 7.4) was added to 1 mL of packed RBCs and incubated at 30°C for 10 min. After, 2.25 mL of resealing buffer (280 mM NaCl, 40 mM KCl, 11 mM glucose, and 1 mM HEPES, pH 7.4) was added and cells were pelleted at 1,200 x g for 5 min then washed 3 x in RPMI. FITC-dextran loaded RBCs were then resuspended with 1 mL of synchronous trophozoite stage parasites (10–20%) parasitemia, at 4% hematocrit. Cultures were maintained in 50 mL for a minimum of 2 life cycles, until parasitemia reached >15%.
For assay use, trophozoite stage parasites were functionally isolated as described by van Schalkwyk et al. and Kirk et al. with some modifications.[69]^,[70] Parasites were resuspended in warm media with 0.05% saponin then centrifuged immediately at 2,060 x g for 10 min. Cells were washed in RPMI media 3 x then resuspended in HEPES buffered saline (100 mM KCl, 30 mM NaCl, 2 mM MgCl2, and 5 mM HEPES, pH 7.3) at 5 x 10^6 cells/mL. […] Samples were collected at 0.5, 1, and 2 h for flow cytometry using a CytoFLEX S (Beckman Coulter, Brea, CA), excitation 488 nm, emissions 530 and 585 nm. Gating was performed in FlowJo Version 10 using FITC-dextran loaded and unloaded controls. The ratio (Rgy) of the fluorescent intensity values was then graphed using Graph Pad Prism Version 9. For microscopic analysis, samples were collected after 2 h of treatment and imaged on a Leica TCS SP5 II confocal microscope (Leica Microsystems, Wetzlar, DE.) at excitation 488, emission 520 nm with a 30 nm bandpass filter, then processed with LAS-X software. Significance determined using a one-way ANOVA multiple comparisons test in GraphPad Prism Version 9.0.

[2] = tested on: P. falciparum asexual blood stage parasites grown in 0.5% Albumax II; assay: Antiplasmodial activity with Albumax II media; format: cell-based; settings: RPMI with 0.5% Albumax II; mean ± SEM from 3 biological replicates
Method: Asexual blood stage parasites grown in the Chakrabarti laboratory were cultured based on a protocol by Trager and Jensen[57] with some modifications.[35] […] For comparison screening using serum vs Albumax II, culture media was changed from RPMI with 0.5% Albumax II to RPMI with 10% human serum and maintained for a minimum of 2 weeks prior to assay use.
Inhibitor EC50 determination in 3D7 and Dd2 was performed as discussed in,[35] based on established protocols.[60] Assays utilized asynchronous culture at 1% parasitemia, 1% hematocrit. Culture was incubated with compound dilutions for 72 h followed by freezing at −80°C to promote lysis, then thawing and incubation for 45 min–1 h with 1× SYBR Green I in a lysis buffer (20 mM Tris-HCL, 0.08% saponin, 5 mM EDTA, and 0.8% Triton X-100). Fluorescence was read 485 nm excitation, 530 nm emission on a Synergy Neo2 multimode reader (BioTek Winsooki, VT) and EC50 curves were generated using CDD Vault (https://www.collaborativedrug.com/).

[3] = tested on: P. falciparum Dd2; design: method as in PMID: 33565879; settings: asynchronous culture, 1% parasitemia, 1% hematocrit, 72 h, SYBR Green I; mean ± SEM, biological triplicate; ref PMID: 33565879; cited from earlier work
Description: Arrow length represents correlation strength. Arrow direction indicates positive/negative correlation. Peptaibols color-coded based on type. See also Figure S1. […] Values represent mean ± SEM. Resistance index (RI) = Dd2 EC50/3D7 EC50, Selectivity index (SI) = HepG2 EC50/Dd2 EC50.

[4] = tested on: Dd2; assay: Cross resistance screening (1536-well SYBR Green I), parental line; format: cell-based, P. falciparum; settings: Winzeler laboratory cross resistance screen, 0.3% parasitemia, 2.5% hematocrit, 72 h, mean ± SEM of 3 biological replicates
Method: (§1) Parasites grown in the Winzeler laboratory for screening and drug selections were maintained in RPMI 1640 medium supplemented with 0.25% Albumax I, 26 mM sodium bicarbonate, 0.1 mM hypoxanthine, and […] gentamicin. Human O+ whole blood obtained from the Blood Bank of The Scripps Research Institute was used for cultivation (human subjects IRB number: 125933). Blood-stage cultures were kept at 37°C with 5% CO2, 3% O2, and 92% N2. Monitoring of parasitemia and parasite morphology was performed using microscopic evaluation of thin blood smears that were first fixed with methanol, and then stained with Giemsa.
(§2) Cross resistance screening was performed with 0.3% parasitemia, 2.5% hematocrit, dispensed into 1536-well black, clear bottom plates with pre-spotted compound using a MultiFloTM Microplate dispenser (BioTek) at a volume of 8 μL/well. Plates where then incubated at 37°C for 72 h, after which 10× SYBR Green I (Invitrogen) in a lysis buffer (20 mM Tris/HCl, 5 mM EDTA, 0.16% (w/v) saponin, 1.6% (v/v) […]) was then added using a MultiFloTM Microplate dispenser (BioTek) at a volume of 2 μL/well. After 24 h incubation at room temperature, viability was measured via fluorescence using the EnVision® Multilabel Reader (PerkinElmer) (485 nm excitation, 530 nm emission). IC50 values were determined in CDD vault (https://www.collaborativedrug.com/).

[5] = tested on: PfACS_A597; assay: Cross resistance screening (1536-well SYBR Green I); format: cell-based, P. falciparum; settings: 72 h, mean ± SEM of 3 biological replicates
Method: as §1, §2

[6] = tested on: PfCARL_I1139K; assay: as above; format: cell-based, P. falciparum; settings: 72 h, mean ± SEM of 3 biological replicates
Method: as §1, §2

[7] = tested on: PfPI4K_S1320L; assay: as above; format: cell-based, P. falciparum; settings: 72 h, mean ± SEM of 3 biological replicates
Method: as §1, §2

[8] = 5 x EC50, isolated trophozoites

CC[C@@](C)(NC(=O)C(C)(C)NC(=O)[C@H](CC(C)C)NC(=O)[C@@H]1CCCN1C(=O)C(C)(C)NC(=O)[C@H](CC(C)C)NC(=O)CNC(=O)C(C)(C)NC(=O)[C@@H](NC(=O)C(C)(C)NC(=O)[C@H](CCC(N)=O)NC(=O)C(C)(C)NC(=O)C(C)(C)NC(=O)[C@H](C)NC(=O)CNC(=O)C(C)(C)NC(C)=O)C(C)C)C(=O)N[C@@H](CCC(N)=O)C(=O)N[C@H](CO)CC(C)C [TC HA-II, trichorzin HA II] (Ac-[Aib]GA[Aib][Aib]Q[Aib]V[Aib]GL[Aib]PL[Aib][dIva]Q[Leu(ol)])
DV Alkylization [1]: ++ | localization of membrane impermeable dye FITC-dextran (DV membrane leakage) ([1]; 5 x EC50): no longer showed full colocalization of the dye within the DV

CC(=O)NC(C)(C)C(=O)N1CCC[C@H]1C(=O)NC(C)(C)C(=O)N[C@@H](C)C(=O)NC(C)(C)C(=O)N[C@@H](C)C(=O)N[C@@H](CCC(N)=O)C(=O)NC(C)(C)C(=O)N[C@H](C(=O)NC(C)(C)C(=O)NCC(=O)N[C@@H](CC(C)C)C(=O)NC(C)(C)C(=O)N1CCC[C@H]1C(=O)N[C@H](C(=O)NC(C)(C)C(=O)NC(C)(C)C(=O)N[C@@H](CCC(=O)O)C(=O)N[C@@H](CCC(N)=O)C(=O)N[C@H](CO)Cc1ccccc1)C(C)C)C(C)C [Alamethicin, reference compound] (Ac-[Aib]P[Aib]A[Aib]AQ[Aib]V[Aib]GL[Aib]PV[Aib][Aib]EQ[Phe(ol)]; N-terminus assumed)
pH dependent fluorescence ratio (FI585/FI530), DV pH, after 0.5 h [1, 8]: Rapid alkalization | localization of membrane impermeable dye FITC-dextran (DV membrane leakage) ([1]; 5 x EC50): no longer showed full colocalization of the dye within the DV

CC[C@H](C)[C@H](NC(=O)[C@H](C)NC(=O)[C@@H]1CCCN1C(=O)C(C)(C)NC(=O)[C@H](CC(C)C)NC(=O)[C@H](CCC(N)=O)NC(=O)[C@@](C)(CC)NC(C)=O)C(=O)NC(C)(C)C(=O)N1CCC[C@H]1C(=O)N[C@](C)(CC)C(=O)N[C@@H](CC(C)C)C(=O)NC(C)(C)C(=O)N1CCC[C@H]1C(=O)N[C@H](CO)CC(C)C [HZ NPDG-H, harzianin NPDG H] (Ac-[dIva]QL[Aib]PAI[Aib]P[dIva]L[Aib]P[Leu(ol)])
pH dependent fluorescence ratio (FI585/FI530), DV pH, 0.5, 1 or 2 h [1, 8]: No significant (p > 0.05) change | DV Alkylization [1]: - | localization of membrane impermeable dye FITC-dextran (DV membrane leakage) ([1]; 5 x EC50): not seen | EC50 [2]: 330 ± 90 nM | EC50 [3]: 330 ± 90 nM

CC[C@H](C)[C@H](NC(=O)[C@H](CC(C)C)NC(=O)[C@H](CCC(N)=O)NC(=O)[C@@](C)(CC)NC(C)=O)C(=O)NC(C)(C)C(=O)N1CCC[C@H]1C(=O)N[C@](C)(CC)C(=O)N[C@@H](CC(C)C)C(=O)NC(C)(C)C(=O)N1CCC[C@H]1C(=O)N[C@H](CO)CC(C)C [HZ NPDG-I, harzianin NPDG I] (Ac-[dIva]QLI[Aib]P[dIva]L[Aib]P[Leu(ol)])
EC50 [4]: 13 ± 6 nM | EC50 [5]: 23 ± 5 nM | EC50 [6]: 8 ± 1 nM | EC50 [7]: 13 ± 3 nM | pH dependent fluorescence ratio (FI585/FI530), DV pH, after 1 h [1, 8]: moderate increase | pH dependent fluorescence ratio (FI585/FI530), DV pH, after 2 h [1, 8]: significant (p = 0.0015) increase | DV Alkylization [1]: + | localization of membrane impermeable dye FITC-dextran (DV membrane leakage) ([1]; 5 x EC50): no longer showed full colocalization of the dye within the DV | EC50 [2]: 100 ± 10 nM | EC50 [3]: 100 nM
